Values joined by “and” are separate entries in the source; they are usually repeats but may differ in a detail not shown here. Identical values can stand only once. Like-named read-outs stand apart in the source and are kept apart here.

Data set [1] deals with IL-8 secretion from cystic fibrosis lung epithelial IB3-1 cells.
The conditions of data set [2]: mobile phase: methanol/water 30:70; cited from earlier work.
The conditions of data set [3]: eluent acetonitrile/water 45:55; cited from earlier work.
The subject of data set [4] is guinea-pig heart Na^+-K^+-ATPase. Particulars: cited from earlier work.
For data set [5] the following is noted: octanol/water (20 mM TRIS-HCl, pH 7.4); cited from earlier work.
The subject of data set [6] is human vascular endothelial cells (HUVEC). As to conditions: in vitro, read-out: 50% kill concentration; cited from earlier work.
The conditions of data set [7]: for 70 kg man; cited from earlier work.
Data set [8] deals with HeLa cervical cancer cells. Particulars: human.
In data set [9] the test system is HeLa cervical cancer cells. Kind of data set: cells. Particulars: Homo sapiens, 24 h, read-out: IC50 dose for cell death.
The mark [10] stands for this setting: read-out: IC50 nmol/L in cells, 50% suppression of spontaneous IL-8 secretion, IB3-1 cells, 48 hours.
The mark [11] stands for this setting: Homo sapiens, IB3-1, 48 h, read-out: IC50 nmol/L in cells.
Where [12] appears, read: Homo sapiens, IB3-1, 48 h, read-out: IC50 (K50) for spontaneous IL-8 secretion.

With `CC(=O)O[C@H]1CC[C@@]2(C)[C@H](CC[C@@H]3[C@@H]2C[C@@H](OC(C)=O)[C@]2(C)[C@@H](C4=CC(=O)OC4)CC[C@]32O)C1` (single isomer, unassigned; diac) [digoxigenin3,12 diAC, digoxigenin 3,12 diAC], the “Activity on IL-8 secretion” value in [1] (at a concentration of 1000 nM (1 micromolar)) is “entirely inactive”. Also, in data set [1] (setting [10]), the IC50 is above 1000 nmol/L.

For `CC(=O)O[C@H]1CC[C@]2(C=O)[C@H]3CC[C@]4(C)[C@@H](C5=CC(=O)OC5)CC[C@]4(O)[C@@H]3CC[C@]2(O)C1` [acetylstrophanthdin, acetyl-strophanthidin], in [1] (setting [10]), the IC50 was found to be 117 nmol/L.

As to `C[C@]12CC[C@H](O)C[C@H]1CC[C@@H]1[C@@H]2CC[C@]2(C)[C@@H](C3=CC(=O)OC3)CC[C@]12O` [digitoxigenin], the “RM values (lipophilicity, reversed-phase thin layer chromatography)” value (“RM values” for short) in data set [2] is recorded as 1.03. Also, the “K retentions for reversed-phase high pressure liquid chromatography” value (“K retentions” below) in data set [3] is listed as 1.81. In addition, the ID50 in data set [4] is listed as 1.63 ± 0.06 ×10^−4 mol l^−1. Further, the “P (partition coefficient in octanol/water system)” value in data set [5] is listed as 270.0 ± 94.1. Besides, the IC50 in [1] (setting [11]) turned out to be 74 nmol/L.

With `C[C@]12CC[C@H](O)C[C@H]1CC[C@@H]1[C@@H]2C[C@@H](O)[C@]2(C)[C@@H](C3=CC(=O)OC3)CC[C@]12O` [digoxigenin], the “P (partition coefficient in octanol/water system)” value in data set [5] is 13.5 ± 2.3. The IC50 in data set [1] (setting [11]) was found to be 34 nmol/L.

For `C[C@H]1O[C@@H](O[C@H]2[C@@H](O)C[C@H](O[C@H]3[C@@H](O)C[C@H](O[C@H]4CC[C@@]5(C)[C@H](CC[C@@H]6[C@@H]5C[C@@H](O)[C@]5(C)[C@@H](C7=CC(=O)OC7)CC[C@]65O)C4)O[C@@H]3C)O[C@@H]2C)C[C@H](O)[C@@H]1O` [digoxin], the “RM values” value in data set [2] was 0.25. The “K retentions” value in [3] is 0.50. Further, the ID50 in [4] was 0.90 ± 0.07 ×10^−4 mol l^−1. Moreover, the IC50 in [6] was around 210 nM; in [1] (setting [11]), 27 nmol/L; in [1] (setting [12]) it was around 27 nmol/L. In [7], the “Human toxicity limit” value is 1900 nmol. The “Human toxicity limit, Nmol/L = nM” value in data set [7] is 27.1 nM.

Regarding `CO[C@H]1C[C@H](O[C@H]2CC[C@@]3(C)[C@H](CC[C@@H]4[C@@H]3CC[C@]3(C)[C@@H](C5=CC(=O)OC5)[C@@H](OC(C)=O)C[C@]43O)C2)O[C@@H](C)[C@@H]1O` [oleandrin], the “Threshold concentration for an increase in cell death” value in data set [8] is listed as “ca. 30 nM”. Also, the IC50 is around 100 nM in [9], 2 nmol/L in data set [1] (setting [11]) and around 2 nmol/L in data set [1] (setting [12]).

In the case of `C[C@@H]1O[C@@H](O[C@H]2C[C@@H](O)[C@]3(CO)[C@H]4[C@H](O)C[C@]5(C)[C@@H](C6=CC(=O)OC6)CC[C@]5(O)[C@@H]4CC[C@]3(O)C2)[C@H](O)[C@H](O)[C@H]1O` [ouabain], the “Threshold concentration for an increase in cell death” value in [8] was “ca. 50 nM”. Also, the “RM values” value in [2] is recorded as −0.73. For the same molecule, the “K retentions” value in [3] was 0.14. Also, in data set [4], the ID50 was 2.28 ± 0.10 ×10^−4 mol l^−1. For the same molecule, the IC50 in data set [6] is 240 nM and 357 nM and ~240 nM and ~357 nM; in [9] it was around 200 nM; in [1] (setting [11]) it was 8 nmol/L. Further, the “P (partition coefficient in octanol/water system)” value in data set [5] is 0.02 and 0.02 ± 0.00. Further, the “Human toxicity limit” value in data set [7] is reported as 1683 nmol.

Consider α-Methyldigoxin, for which, in data set [2], the “RM values” value is recorded as 0.54. Moreover, the “K retentions” value in [3] was 1.13. The ID50 in [4] is reported as 2.23 ± 0.11 ×10^−4 mol l^−1. Further, in [5], the “P (partition coefficient in octanol/water system)” value was 56.6 ± 9.8.

β-Acetyldigoxin: in data set [2], the “RM values” value is given as 0.70. Further, the “K retentions” value in data set [3] is reported as 1.25. In addition, the ID50 in data set [4] is listed as 1.60 ± 0.02 ×10^−4 mol l^−1. Also, the “P (partition coefficient in octanol/water system)” value in data set [5] was 99.2 ± 4.1.

Source of the values: patent US20140187505A1, “Cardiac Glycosides to Treat Cystic Fibrosis and Other IL-8 Dependent Disorders” (priority 2002, published 2014).
